Measured values published in patent US11517600B2, “Use of Crassocephalum rabens extract in the treatment of breast cancer” (ACADEMIA SINICA, priority 2018, dated 2022).

Columns and labels:
[1] = test system: 4T1 (murine TNBC) orthotopic tumor; assay: 4T1 orthotopic breast cancer model: tumor growth and survival; type: in vivo, mice; settings: for reduced tumor volumes compared with the tumor control group: endpoint day 30; for tumor volume compared with the tumor control: Dox 5 mg/kg every 3 days i.v. (P<0.0001), Dox5+dLGG5 (P=0.0015), dLGG 25 mg/kg daily o.p. (P=0.0015)
Experimental: Female BALB/cByJNar1 mice (4-week-old) were supplied from National Laboratory Animal Center, Taipei, Taiwan and given a standard laboratory diet and distilled water ad libitum and kept on a 12-h light/dark cycle at 22±2° C. This study was conducted according to the institutional guidelines and approved by the Institutional Animal Care and Utilization Committee (IACUC) of Academia Sinica, Taiwan.
(§1) The therapeutic effects of dLGG or dLGG-enriched CR-API fractions from C. rabens against TNBC were evaluated using an orthotopic tumor model. Briefly, mice were subcutaneously injected with 4T1 (murine TNBC) cells (5×10^6 cells per 100 μl PBS and 50 μl matrigel per mouse) into the fourth mammary fat pad under isoflurane anaesthesia. Tumor growth and body weight are monitored daily. After tumors grow to an approximate size of 150 mm^3 at day 7 post implantation, test mice are randomized into different groups (8 mice per group) and subjected to a three-week compound treatment scheme (FIG. 2). […] Dosage and frequency of doxorubicin treatment is based on maximum tolerable dose determined from in house toxicity experiments within the concentration range commonly used in animal studies (Bao L, Haque A, Jackson K, et al. (2011) Increased Expression of P-Glycoprotein Is Associated with Doxorubicin Chemoresistance in the Metastatic 4T1 Breast Cancer Model. The American Journal of Pathology. 2011; 178 (2):838-852). Effects of drug/compound/extracts are evaluated thrice a week by monitoring tumor size and body weight. Euthanasia by cervical dislocation are performed at day 30 post tumor implantation. Tumors, organ tissues (lungs, liver, kidneys, spleen) and serum were immediately collected and allocated either for western blotting (immediately flash frozen using N2 and stored at −80° C.) or for paraffin fixation (immediately soaked in 10% formalin solution for at least one week). Paraffin-embedded tissues were stored at room temperature.

[2] = test system: MCF10A (normal mammary epithelial cells); assay: MTT cell viability assay, MCF10A; type: cell-based, human; settings: 24 h treatment
Experimental: (§2) Immortalized normal human mammary epithelial cells (MCF10A) and breast cancer cell lines including HER2+ (SKBR3), ER+ (MCF7), triple negative (MDA-MB-231), and murine TNBC cell line 4T1 were obtained from the ATCC (USA). Cells were expanded and frozen at low passage after the receipt of the original stocks. Cells were thawed and used within 15 passages.
(§3) Cells (3×10^3 cells/well) were seeded in 96-well plates overnight and treated for 24 hours. Cell growth was determined by MTT-based colorimetric assay. Viability of the cells treated with vehicle-only (0.5% DMSO) was defined as 100% viability. Cell survival after compound treatment was calculated using the following formula: viable cell number (%)=[OD570 (treated cells)/OD570 (vehicle control)]×100.

[3] = test system: TNBC metastatic tumor nodules in liver; assay: Distal metastasis to the liver (H&E, Ki-67 IHC); type: in vivo, mice; settings: day 30; all dose groups (dLGG5, dLGG25, CR-API200, CR-API400, Dox5, Dox5+dLGG5) vs tumor control
Experimental: as §1, with “Tumors, organ tissues (lungs, liver, kidneys, spleen) and serum were immediately collected and allocated either for western blotting (immediately flash frozen using N2 and stored at −80° C.) or for paraffin fixation (immediately soaked in 10% formalin solution for at least one week). Paraffin-embedded tissues were stored at room temperature.” left out

Src (p-Src^419) = assay: Western blot of tumor tissues, Src activation; type: in vivo, mice; settings: all dLGG and CR-API treatments, Dox5+dLGG5, Dox5
Experimental: as §1, with “Tumors, organ tissues (lungs, liver, kidneys, spleen) and serum were immediately collected and allocated either for western blotting (immediately flash frozen using N2 and stored at −80° C.) or for paraffin fixation (immediately soaked in 10% formalin solution for at least one week). Paraffin-embedded tissues were stored at room temperature.” left out

cleaved caspase-3 = assay: IHC of cleaved caspase-3 in tumor tissues; type: in vivo, mice; settings: for caspase-3 expression compared with the low dose treatments and the Dox5+dLGG5 combination: day 30, Dox 5 mg/kg i.v., CR-API 400 mg/kg, dLGG 25 mg/kg daily o.p.; for cleaved caspase-3 expression in tumor tissues compared with the vehicle control: day 30, all treatment groups
Experimental: as §1
(§4) Tumor and organ tissues were fixed in 10% buffered formalin and embedded in paraffin. Paraffin-embedded samples were sectioned (6 μm) and underwent hemotoxylin and eosin (H&E) or immunohistochemical (IHC) staining. Paraffin-embedded tissue sections were heat immobilized and deparaffinized using xylene and rehydrated in a graded series of ethanol with a final wash in distilled water. For antigen retrieval, citrate retrieval buffer and Decloaking Chamber (Biocare Medical) were used. Images were captured using AxioVision software (Carl Zeiss MicroImaging, Inc.).

4T1 TNBC cells = assay: MTT cell viability assay, 4T1; type: cell-based; settings: Mus musculus, murine derived TNBC cells 4T1, 24 hours
Experimental: as §2, §3

[4] = test system: MCF7 (ER+ breast cancer cells); assay: MTT cell viability assay, MCF7; type: cell-based; settings: Homo sapiens; MCF7, 24 hours, tested concentration range 5-100 μM
Experimental: as §2, §3

[5] = test system: MDA-MB-231 (ER−, PR− and Her2− TNBC cells); assay: MTT cell viability assay, MDA-MB-231; type: cell-based; settings: human derived TNBC cells, 24 hours
Experimental: as §2, §3

Cav-1 = assay: Western blot of tumor tissues, Cav-1; type: in vivo, mice; settings: high dose dLGG (25 mg/kg), Dox5, Dox5+dLGG5
Experimental: as §1, with “Tumors, organ tissues (lungs, liver, kidneys, spleen) and serum were immediately collected and allocated either for western blotting (immediately flash frozen using N2 and stored at −80° C.) or for paraffin fixation (immediately soaked in 10% formalin solution for at least one week). Paraffin-embedded tissues were stored at room temperature.” left out

COX-2 [6] = assay: IHC of COX-2 in liver and lung tissues; type: in vivo, mice; settings: day 30, dLGG 5 and 25, CR-API 200 and 400 mg/kg daily o.p., Dox 5 mg/kg every 3 days i.v., Dox5+dLGG5
Experimental: as §1, with “Tumors, organ tissues (lungs, liver, kidneys, spleen) and serum were immediately collected and allocated either for western blotting (immediately flash frozen using N2 and stored at −80° C.) or for paraffin fixation (immediately soaked in 10% formalin solution for at least one week). Paraffin-embedded tissues were stored at room temperature.” left out

[7] = test system: TNBC metastatic tumor nodules in lung; assay: Distal metastasis to the lungs (H&E, Ki-67 IHC); type: in vivo, mice; settings: for tumor metastasis nodules in the lung tissues: day 30, all dose groups (dLGG5, dLGG25, CR-API200, CR-API400, Dox5, Dox5+dLGG5) vs tumor control
Experimental: as §1, §4

COX-2 [8] = assay: Western blot of tumor tissues, COX-2; type: in vivo, mice; settings: all dLGG and CR-API groups, Dox5+dLGG5 compared with Dox5 alone
Experimental: as §1, with “Tumors, organ tissues (lungs, liver, kidneys, spleen) and serum were immediately collected and allocated either for western blotting (immediately flash frozen using N2 and stored at −80° C.) or for paraffin fixation (immediately soaked in 10% formalin solution for at least one week). Paraffin-embedded tissues were stored at room temperature.” left out

Ki67 = assay: IHC of Ki67 in tumor tissues; type: in vivo, mice; settings: day 30, dLGG and CR-API regardless of dose, Dox5, Dox5+dLGG5, vs tumor control
Experimental: as §1, with “Tumors, organ tissues (lungs, liver, kidneys, spleen) and serum were immediately collected and allocated either for western blotting (immediately flash frozen using N2 and stored at −80° C.) or for paraffin fixation (immediately soaked in 10% formalin solution for at least one week). Paraffin-embedded tissues were stored at room temperature.” left out

[9] = Body weight of tumor-implanted mice; type: in vivo
Experimental: as §1, with “Tumors, organ tissues (lungs, liver, kidneys, spleen) and serum were immediately collected and allocated either for western blotting (immediately flash frozen using N2 and stored at −80° C.) or for paraffin fixation (immediately soaked in 10% formalin solution for at least one week). Paraffin-embedded tissues were stored at room temperature.” left out

Rac1 = assay: Western blot of tumor tissues, Rac1; type: in vivo, mice; settings: high dose dLGG (25 mg/kg), Dox5, Dox5+dLGG5
Experimental: as §1, with “Tumors, organ tissues (lungs, liver, kidneys, spleen) and serum were immediately collected and allocated either for western blotting (immediately flash frozen using N2 and stored at −80° C.) or for paraffin fixation (immediately soaked in 10% formalin solution for at least one week). Paraffin-embedded tissues were stored at room temperature.” left out

CYP2C19 = assay: Western blot of tumor tissues, CYP2C19; type: in vivo, mice; settings: all dLGG and CR-API groups, Dox5+dLGG5 compared with Dox5 alone
Experimental: as §1, with “Tumors, organ tissues (lungs, liver, kidneys, spleen) and serum were immediately collected and allocated either for western blotting (immediately flash frozen using N2 and stored at −80° C.) or for paraffin fixation (immediately soaked in 10% formalin solution for at least one week). Paraffin-embedded tissues were stored at room temperature.” left out

[10] = test system: SKBR3 (Her2+ breast cancer cells); assay: MTT cell viability assay, SKBR3; type: cell-based; settings: Homo sapiens, SK-BR-3; SKBR3, 24 hours, tested concentration range 5-100 μM
Experimental: as §2, §3

FAK = assay: Western blot of tumor tissues, FAK phosphorylation; type: in vivo, mice; settings: high dose dLGG (25 mg/kg), high dose CR-API (400 mg/kg), Dox5, Dox5+dLGG5
Experimental: as §1, with “Tumors, organ tissues (lungs, liver, kidneys, spleen) and serum were immediately collected and allocated either for western blotting (immediately flash frozen using N2 and stored at −80° C.) or for paraffin fixation (immediately soaked in 10% formalin solution for at least one week). Paraffin-embedded tissues were stored at room temperature.” left out

[11] = dLGG 25 mg/kg, CR-API 400 mg/kg daily o.p., Dox 5 mg/kg every 3 days i.v., Dox5+dLGG5

| Structure (SMILES) | tumor volume compared with the tumor control ([1]; day 30) | tumor metastasis nodules in the liver tissues [3] | activation of Src (p-Src^419) in tumor tissues compared with the tumor control (Src (p-Src^419)) | caspase-3 expression compared with the low dose treatments and the Dox5+dLGG5 combination (cleaved caspase-3) | cleaved caspase-3 expression in tumor tissues compared with the vehicle control (cleaved caspase-3) | Cav-1 expression level in tumor tissues (Cav-1) | COX-2 expression in liver and lung tissues (COX-2 [6]) | metastatic tumor nodules in lung (H&E) [7, 11] | tumor metastasis nodules in the lung tissues [7] | Rac1 expression level in tumor tissues (Rac1) | phosphorylation of FAK in tumor tissues (FAK) | also measured |
| --- | --- | --- | --- | --- | --- | --- | --- | --- | --- | --- | --- | --- |
| CC/C=C\C/C=C\C/C=C\CCCCCCCC(=O)OC[C@H](CO[C@@H]1O[C@H](CO)[C@H](O)[C@H](O)[C@H]1O)OC(=O)CCCCCCC/C=C\C/C=C\C/C=C\CC [dLGG, 1,2-di-O-α-linolenoyl-3-O-β-galactopyranosyl-sn-glycerol] | significant tumor volume reduction | less compared with the tumor control group | significantly inhibited | higher caspase-3 expression | increased expression of cleaved caspase-3 | decreased significantly | decreased in a dose-dependent manner | not detectable | less compared with the tumor control group | decreased significantly | significantly inhibited | survival ([1]; dLGG5: 5 mg/kg daily o.p., day 30): 100%; reduced tumor volumes compared with the tumor control group ([1]; dLGG5: 5 mg/kg daily o.p., P<0.05): 18%; survival ([1]; dLGG25: 25 mg/kg daily o.p., day 30): 100%; reduced tumor volumes compared with the tumor control group ([1]; dLGG25: 25 mg/kg daily o.p., P<0.05): 47%; cell survival [2]: no significant change in cell survival; IC50 (4T1 TNBC cells): 55 µM; IC50 [4]: > 100 µM; IC50 [5]: 55 µM; metastatic tumor nodules in lung (H&E) ([7]; low dose: dLGG 5 mg/kg, CR-API 200 mg/kg daily o.p.): visible; COX-2 expression level in tumor tissues (COX-2 [8]): dose dependent effect on attenuating the expression levels; Ki-67 overexpression in tumor tissues (Ki67): attenuated; weight loss ([9]; dLGG 5 and 25 mg/kg, CR-API 200 and 400 mg/kg daily o.p., given alone): No significant weight loss; CYP2C19 expression level in tumor tissues (CYP2C19): dose dependent effect on attenuating the expression levels; IC50 [10]: > 100 µM |
| COc1cccc2c1C(=O)c1c(O)c3c(c(O)c1C2=O)C[C@@](O)(C(=O)CO)C[C@@H]3O[C@H]1C[C@H](N)[C@H](O)[C@H](C)O1 [Dox, doxorubicin, reference compound] | significant tumor volume reduction | less compared with the tumor control group | much less or no effect at all | higher caspase-3 expression | increased expression of cleaved caspase-3 | decreased significantly | further induce COX-2 expression | not detectable | less compared with the tumor control group | decreased significantly | significantly inhibited | reduction in tumor weight ([1]; Dox5: 5 mg/kg every 3 days i.v., day 30, P<0.05): 60%; loss of weight ([9]; Dox5: 5 mg/kg every 3 days i.v., day 30): 10 % of starting body weights |
